According to publication PMC2376196, “Novel thalidomide analogues display anti-angiogenic activity independently of immunomodulatory effects” (British Journal of Cancer, 2002):
Values after ≈ are worked out from the molar mass of the structure shown. “Also recorded” adds a separate entry of the source. Where two headings read alike, the source gives them in different places.

Columns and labels:
[1] = system: PDE type 4 purified from U937 cells; test: Phosphodiesterase (PDE) type 4 assay; assay type: biochemical; conditions: PDE type 4 from U937 cells; three independent experiments; read-out: PDE4 activity IC50
Description: PDE type 4 purification from U937 cells was carried out using the method of [Hill and Mitchell (1994)]. PDE activity was assayed, using a method described by [di Santo and Heaslip (1993)], in the presence of varying concentrations of thalidomide analogues. Each data point was carried out in duplicate with activity expressed as percentage of control. IC50 was determined from dose response curves derived from three independent experiments.

TNF-α = TNF-α inhibitory activity; assay type: cell-based
HUVEC = HUVEC proliferation (bFGF- and VEGF-induced, 3H-thymidine); assay type: cell-based, human; conditions: for bFGF and VEGF-induced proliferation of HUVECs: 5-50 μg ml^-1, 96 h; for HUVEC inhibition ~IC50 VEGF / HUVEC inhibition ~IC50 bFGF / IC50: 96 h, approximate figures; for IC50: Homo sapiens, HUVEC
Description: (§1) Human umbilical vein endothelial cells (HUVEC) were purchased from TCS Cellworks Ltd. (Park Leys, Botolph Claydon, Bucks, UK) and cultured in large vessel EC basal medium and cell growth supplement (TCS Cellworks Ltd.). The cells were passaged between 3–5 times prior to use. The human endothelial-like EA.hy926 cell line, derived from the fusion of HUVEC with the A549 carcinoma cell line ([Edgell et al, 1983]), was kindly provided by Cora-Jean Edgell (NC, USA). The cells were cultured in DMEM with high glucose, 10% FCS and HAT. Both cell lines were harvested from subconfluent cultures and diluted to 4×10^4 cells ml^−1. Cells were seeded in 60 wells of a 96-well plate in a volume of 100 μl^−1. One plate was used per test article. Plates were incubated for 1 h at 37°C and 5% CO2. Growth factors were added at a volume of 50 μl^−1 with final concentrations of 10 ng ml^−1. Thalidomide and its analogues were added at a volume of 50 μl^−1 in final concentrations of 5, 10, 25, 50 μg ml^−1. DMSO as used as a vehicle at a final concentration of 0.05%. Plates were incubated at 37°C with 5% CO2 for 96 h. During the last 18 h of culture 1 μCi^−1 of ^3H-thymidine was added per well. Plates were then stored at −20°C until analysis using a Microbeta counter (Wallac, UK).

EA.hy926 cell line = test: EA.hy926 proliferation (bFGF- and VEGF-induced, 3H-thymidine); assay type: cell-based, human; conditions: 5-50 μg ml^-1, 96 h; data not shown
Description: as §1

rat aortic explants = test: Rat aorta assay (microvessel outgrowths); assay type: cell-based; parameters: key to Anti-angiogenesis Rat aorta: 0=no effect; 1=non significant inhibition; 2=significant inhibition at 10 μg ml^-1; 3=significant inhibition at 1 μg ml^-1; conditions: for Anti-angiogenesis Rat aorta: ranked 0-3
Description: For the human angiogenesis assay thalidomide and various analogues were dissolved in DMSO (Sigma, Kent, UK) to obtain a stock solution of 1 mg ml^−1. Further dilutions were made in warm culture medium immediately before use and 1 and 10 μg ml^−1 of thalidomide or analogues were administered every 48 h. Final DMSO concentration was 0.05%. For the rat aorta assay, thalidomide analogues (Celgene, Warren, NJ, USA) were prepared in Tween 80 (Sigma, Kent, UK). […] The final Tween 80 concentration was 0.025%. For in vivo treatment experiments, mice were treated daily with 10 or 50 mg kg^−1 IMiD-1 with 0.5% DMSO as vehicle (see Tumour challenge model).
Preparation of agarose culture wells and aortic explants were prepared as described originally [Nicosia and Ottinetti, 1990], and subsequently modified by [Stevenson et al, 1998]. In brief, aortic explants were stored in DMEM/HAM F12. Agarose rings were obtained by punching two concentric circles in the sterile agarose gel (1.5%, w v^−1) with specifically designed aluminium punches. Collagen type I from rat tail (Sigma) was dissolved overnight in glacial acetic acid and diluted to 4.3 mg ml^−1 with 10% (v v^−1) DMEM/HAM F12. The final collagen solution was obtained by mixing seven volumes of 4.3 mg ml^−1 collagen with two volumes NaHCO3 (11.7 mg ml^−1 in DMEM/HAM F12) and one volume of 10×MEM. Finally, the pH was adjusted to 7.4 with 0.1 M NaOH using phenol red as a visual indicator. Prior to embedding of explants in collagen gel, the bottom of each agarose well was coated with 200 μl collagen solution and allowed to set at 37°C. The wells were then filled (further addition of 400 μl) and explants were promptly orientated into the centre of the collagen gel. The plates were incubated overnight with serum-free medium before group allocation and drug treatment commenced. Drugs were prepared as described and diluted in DMEM/HAM F12 medium to be administered at each media change (48 h). Microvessel outgrowths in all cultures were quantified at each media change.

[2] = system: HUVECs (tubule formation); test: Human angiogenesis kit (tubule development); assay type: cell-based; parameters: key to Anti-angiogenesis Human model: 0=no effect; 1=non significant inhibition; 2=significant inhibition at 10 μg ml^-1; 3=significant inhibition at 1 μg ml^-1; conditions: for inhibition of tubule development: 11 days; for Anti-angiogenesis Human model: ranked 0-3
Description: (§2) For the human angiogenesis assay thalidomide and various analogues were dissolved in DMSO (Sigma, Kent, UK) to obtain a stock solution of 1 mg ml^−1. Further dilutions were made in warm culture medium immediately before use and 1 and 10 μg ml^−1 of thalidomide or analogues were administered every 48 h. Final DMSO concentration was 0.05%. For the rat aorta assay, thalidomide analogues (Celgene, Warren, NJ, USA) were prepared in Tween 80 (Sigma, Kent, UK). Dilutions were made in culture medium immediately before use and 1 or 10 μg ml^−1 of the analogues were administered every 48 h. The final Tween 80 concentration was 0.025%. For in vivo treatment experiments, mice were treated daily with 10 or 50 mg kg^−1 IMiD-1 with 0.5% DMSO as vehicle (see Tumour challenge model).
A commercially available human angiogenesis kit, used for the assessment of angiogenesis in vitro ([Bishop et al, 2000]; [Donovan et al, 2001]; [Terai et al, 2001]; [Drinkwater et al, 2002]; [Osugi et al, 2002]) was provided by TCS Cellworks. The assay is supplied as growing cultures of HUVECs at the earliest stages of tubule formation in a 24 well plate format. The assay was carried out according to manufactures instructions with minor modifications. In brief, 0.5 ml^−1 of fresh medium or medium plus drug preparations were added to the appropriate wells. A known angiogenic stimulator (VEGF at 5 ng ml^−1) and inhibitor (suramin at 10 μg ml^−1) were included as positive and negative controls respectively in addition to medium and DMSO controls and plates were incubated at 37°C. Drug administration was carried out every 48 h. On day 11, wells were fixed using ice cold 70% EtOH prior to incubation (RT) for 30 min. Blocking buffer was then added for 10 min. Endothelial cells were visualised by first staining with a primary sheep anti-human for von Willebrand factor antibody followed by a secondary donkey anti-sheep IgG horseradish peroxidase conjugate prior to colour development using a DAB metal substrate. The plate was washed with ddH2O (×3) and allowed to air dry overnight. Cultures were scored manually using a 25-point Chalkley eyepiece graticule (Graticules Ltd., Tonbridge, Kent, UK), previously described as a satisfactory method of assessing tumour vascularity ([Fox et al, 1995]). The extent of angiogenesis was assessed by counting the number of points on the chalkley graticule that landed on a tubule. The count was repeated 12 times for each well. The term ‘graticule unit’ was assigned to this measurement of tubule density.

EA.hy926 cells = test: Wound assay for EA.hy926 cell migration; assay type: cell-based, human; conditions: 16 h
Description: We tested IMiD-1 in the wound healing assay as described by [Igura et al, 2001]. Briefly, confluent monolayers of EA.hy.926 cells in 35-mm dishes were wounded with a rubber policeman and washed with PBS. Then the dishes were incubated in complete DMEM containing IMiD-1 or suramin for 16 h at 37°C in a 5% CO2 incubator. DMSO (0.05%) was used as control. The cell monolayers were fixed with absolute methanol and stained with Giemsa. The number of cells that had migrated from the edge of the wound in each 125×500 μm area of eight randomly chosen fields was counted. The results are presented as the average number of cells per field.

CMT93 colorectal tumour = assay type: in vivo, MF1 nude mice
Description: as §2
MF1 nude mice (nu nu^−1) were purchased from Harlan UK. Mice were age and sex-matched for individual experiments. All animal experiments have been carried out with ethical committee approval. The ethical guidelines that were followed meet the standards set by the UKCCCR guidelines ([Workman et al, 1998]). CMT93 is an epithelial-like murine rectum polypoid carcinoma cell line with sarcomatous features derived from a C57/BL mouse ([Franks and Hemmings, 1978]). Mice were challenged subcutaneously with 200 μl of the murine colorectal cell line CMT93 (2×10^6 per mouse). Once the tumours reached a size of 20 mm^3, the potent anti-angiogenic analogue IMiD-1 was administered intraperitoneally daily at a concentration of 10 or 50 mg kg^−1. Tumours were measured every 3–4 days, and volumes (in mm^3) were calculated by the use of the formula (width [mm^2]×length [mm]×0.52). The animals were observed daily, and those bearing large tumours were monitored carefully for any signs of discomfort. […] Histological samples were obtained using formalin-fixed, paraffin-embedded sections stained for haematoxylin and eosin and viewed under a microscope at a magnification of ×400.

CMT93 cells = CMT93 cells in vitro (direct effect, VEGF secretion); assay type: cell-based, murine; conditions: data not shown
human EC = system: human EC; parameters: method as in Moreira et al, 1999; conditions: compared with thalidomide; ref Moreira et al, 1999; cited from earlier work
EC = system: EC; parameters: method as in Takano et al, 1994; conditions: ref Takano et al, 1994; cited from earlier work

In the case of `Nc1cccc2c1CN(C1CCC(=O)NC1=O)C2=O` (centres unmarked) [IMiD-1], the IC50 [1] is reported as greater than 100 µM, the IC50 (TNF-α) is reported as 0.1 µM and the “bFGF and VEGF-induced proliferation of HUVECs” value (HUVEC) is reported as “did not significantly inhibit; also recorded: did not affect”. For the same compound, the “HUVEC inhibition ~IC50 VEGF” value (HUVEC; VEGF-induced proliferation) was greater than 50 µg/mL, the “HUVEC inhibition ~IC50 bFGF” value (HUVEC; bFGF-induced proliferation) was greater than 50 µg/mL and the “bFGF and VEGF-induced proliferation of EA.hy926” value (EA.hy926 cell line) was “did not affect”. The “inhibition of microvessel outgrowths” value (rat aortic explants; 1 μg ml^-1 every 48 h) was “significantly inhibited”, the “inhibition of microvessel outgrowths” value (rat aortic explants; 10 μg ml^-1 every 48 h, up to day 10) was 100% and the “Anti-angiogenesis Rat aorta” value (rat aortic explants) was 3. For the same compound, the “inhibition of tubule development” value ([2]; 1 μg ml^-1 every 48 h) was “significant reduction; also recorded: significantly inhibit”, the “inhibition of tubule development” value ([2]; 10 μg ml^-1 every 48 h) was “more potent than suramin” and the “Anti-angiogenesis Human model” value [2] was 3. The “migration of EC in the wound healing assay” value (EA.hy926 cells) was “significantly inhibit”, the “histological examination of tumours” value (CMT93 colorectal tumour; 10 or 50 mg kg^-1 i.p. daily) was “vast regions of necrotic tissue” and the tumour growth rates (CMT93 colorectal tumour; 10 or 50 mg kg^-1 i.p. daily, nude mice, CMT93) was “significantly reduce”. The “health and weight of mice” value (CMT93 colorectal tumour; mouse, in vivo, ip) was “healthy and maintained weight as normal”, the “direct drug effect on CMT93 cells in vitro” value (CMT93 cells) was “no direct drug effect” and the “secretion of VEGF by CMT93 cells in vitro” value (CMT93 cells) was “inhibit”.

With `COc1ccc(C(CC(N)=O)N2C(=O)c3ccccc3C2=O)cc1OC` (centres unmarked) [SelCID-3] the IC50 [1] was 9.42 µM, the IC50 (TNF-α) was 12.6 µM and the “bFGF and VEGF-induced proliferation of HUVECs” value (HUVEC) was “inhibited”. For the same compound, the “HUVEC inhibition ~IC50 VEGF” value (HUVEC; VEGF-induced proliferation) was roughly 45 µg/mL, the “HUVEC inhibition ~IC50 bFGF” value (HUVEC; bFGF-induced proliferation) was roughly 25 µg/mL and the “bFGF and VEGF-induced proliferation of EA.hy926” value (EA.hy926 cell line) was “inhibited”. For the same compound, the “inhibition of microvessel outgrowths” value (rat aortic explants; 1 μg ml^-1 every 48 h) was “potent inhibition”, the “inhibition of microvessel outgrowths” value (rat aortic explants; 10 μg ml^-1 every 48 h) was “potent inhibition” and the “Anti-angiogenesis Rat aorta” value (rat aortic explants) was 3. For the same compound, the “inhibition of human EC proliferation in vitro” value (human EC) was “greater extent than thalidomide”.

For `O=C1CCC(N2C(=O)c3ccccc3C2=O)C(=O)N1` (centres unmarked) [Thalidomide], the IC50 [1] was greater than 100 µM, the IC50 (TNF-α) was 190 µM and the “bFGF and VEGF-induced proliferation of HUVECs” value (HUVEC) was “did not significantly inhibit”. For the same compound, the IC50 (HUVEC; VEGF-induced proliferation, read-out: HUVEC inhibition ~IC50 VEGF) was greater than 50 µg/mL, the IC50 (HUVEC; bFGF-induced proliferation, read-out: HUVEC inhibition ~IC50 bFGF) was greater than 50 µg/mL and the “inhibition of microvessel development” value (rat aortic explants; at up to 50 μg ml^-1, data not shown) was “did not significantly inhibit”. For the same compound, the “Anti-angiogenesis Rat aorta” value (rat aortic explants) was 0, the “inhibition of tubule development” value ([2]; 10 μg ml^-1 every 48 h) was “non-significant inhibition” and the “Anti-angiogenesis Human model” value [2] was 1.

For `Cc1ccc(C(=O)Nc2ccc(S(=O)(=O)O)c3cc(S(=O)(=O)O)cc(S(=O)(=O)O)c23)cc1NC(=O)c1cccc(NC(=O)Nc2cccc(C(=O)Nc3cc(C(=O)Nc4ccc(S(=O)(=O)O)c5cc(S(=O)(=O)O)cc(S(=O)(=O)O)c45)ccc3C)c2)c1` [suramin, reference compound], the “bFGF and VEGF-induced proliferation of HUVECs” value (HUVEC) was “did not inhibit”, the “inhibition of microvessel outgrowths” value (rat aortic explants; 10 μg ml^-1 every 48 h) was “significantly inhibit” and the IC50 (rat aortic explants; Rattus norvegicus, previously determined, data not shown) was 10 µg/mL (≈ 7.71 µM). The inhibition at 10 µg/mL ([2]; Homo sapiens, HUVEC, suramin at 10 μg ml^-1) was roughly 50%, the “migration of EC in the wound healing assay” value (EA.hy926 cells) was “significantly inhibit” and the “concentration required to inhibit EC proliferation” value (EC) was 250 µg/mL.

For VEGF, the “effect on angiogenesis (tubule development)” value ([2]; VEGF at 5 ng ml^-1, positive control) was “significantly increased”.
